Columns and labels:
[1] = molecular target: T1, Dictyostelium discoideum NDP kinase (Dd-NDPK), wild type (Dictyostelium discoideum, UniProt P22887); assay: Pre-steady-state phosphotransfer, fluorescence stopped-flow; type: biochemical; details: catalytic efficiency of phosphotransfer, wt
T1 construct: made in house

[2] = molecular target: T2, Dictyostelium discoideum NDP kinase (Dd-NDPK) variant N119S, SEQ ID NO: 1 (Dictyostelium discoideum, UniProt P22887, N119S); assay: as above; type: biochemical; details: for k2/Ks: catalytic efficiency of phosphotransfer, N119S, pre-steady state; for reaction with N119S relative to wild type (times faster): from k2/Ks of Table I
T2 construct: made in house
T2 sequence (P22887 whole entry N119S): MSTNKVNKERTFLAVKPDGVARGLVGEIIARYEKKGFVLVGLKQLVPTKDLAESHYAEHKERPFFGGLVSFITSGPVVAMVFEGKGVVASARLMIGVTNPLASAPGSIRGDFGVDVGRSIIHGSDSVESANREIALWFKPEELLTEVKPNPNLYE

[3] = molecular target: T3, human NDP kinase A (NDPK-A) variant L55H-N115S, SEQ ID NO: 3 (Homo sapiens, UniProt P15531, L55H/N115S); assay: as above; type: biochemical; details: for k2/Ks: catalytic efficiency of phosphotransfer, L55H-N115S, pre-steady state; for Specificity change (R): ratio of catalytic efficiencies analog vs natural nucleotide, mutant vs wild type
T3 construct: made in house; host or cells: E. coli
T3 sequence (P15531 whole entry L55H/N115S): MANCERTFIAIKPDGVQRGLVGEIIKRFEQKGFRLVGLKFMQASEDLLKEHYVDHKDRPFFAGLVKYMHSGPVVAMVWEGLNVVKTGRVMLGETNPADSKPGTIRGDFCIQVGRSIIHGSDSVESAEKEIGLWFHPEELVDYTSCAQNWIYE

[4] = molecular target: T4, human NDP kinase A (NDPK-A) variant N115S, SEQ ID NO: 2 (Homo sapiens, UniProt P15531, N115S); assay: as above; type: biochemical; details: for k2/Ks: catalytic efficiency of phosphotransfer, N115S, pre-steady state; for Specificity change (R): ratio of catalytic efficiencies analog vs natural nucleotide, mutant vs wild type
T4 construct: made in house; host or cells: E. coli
T4 sequence (P15531 whole entry N115S): as the sequence (P15531 whole entry L55H/N115S) above, with H55L counted along it

[5] = molecular target: T5, Dictyostelium discoideum NDP kinase inactive variant EI-N119S (H122G-F64W-N119S) (Dictyostelium discoideum, UniProt P22887, F64W/H122G/N119S); assay: biochemical; type: binding; details: for increase of affinity by Ser (N119S): relative KD, EI versus EI-N119S
T5 construct: made in house
T5 sequence (P22887 whole entry F64W/N119S/H122G): as the sequence (P22887 whole entry N119S) above, with F64W, H122G counted along it
Experimental: (§1) The binding constants were determined at equilibrium by recording the increase in fluorescence (Schneider, 2000).
(§2) Analog binding affinity was measured using a variant of Dd-NDPK (EI) as described (Schneider, 2000). […] The mutation N119S was inserted in EI in order to measure the nucleotide affinity by fluorescence titration.
(§3) Altered bases as compared to the wild type sequence are underlined in bold. Sequences were checked by automatic sequencing. The mutant EI-N119S was obtained by mutation of the previously described F64W-H122G mutated NDP kinase (here called EI) (Schneider 2000).

[6] = molecular target: T6, Dictyostelium discoideum NDP kinase inactive variant EI (H122G-F64W) (Dictyostelium discoideum, UniProt P22887, F64W/H122G); assay: biochemical; type: binding
T6 construct: made in house
T6 sequence (P22887 whole entry F64W/H122G): as the sequence (P22887 whole entry N119S) above, with F64W, S119N, H122G counted along it
Experimental: as §1, §2, §3

T1 sequence (P22887 whole entry): as the sequence (P22887 whole entry N119S) above, with S119N counted along it

With `Cc1cn([C@H]2C[C@H](N=[N+]=[N-])[C@@H](COP(=O)(O)OP(=O)(O)OP(=O)(O)O)O2)c(=O)[nH]c1=O` [AZT-TP] the k2/Ks [1] was 270 M⁻¹ s⁻¹, the k2/Ks [2] was 1100 M⁻¹ s⁻¹ and the “reaction with N119S relative to wild type (times faster)” value [2] was 4 times. For the same molecule, the k2/Ks [3] was 6770 M⁻¹ s⁻¹, the “Specificity change (R)” value [3] was “(240)” and the k2/Ks [4] was 900 M⁻¹ s⁻¹. For the same molecule, the “Specificity change (R)” value [4] was “(125)”, the Kd [5] was 2200 nM and the “increase of affinity by Ser (N119S)” value [5] was 15 fold. It also gave a Kd [6] of 30000 nM.

`Nc1nc2c(ncn2[C@H]2CC[C@@H](COP(=O)(O)OP(=O)(O)OP(=O)(O)O)O2)c(=O)[nH]1` [ddGTP, dideoxy-GTP] was tested, and the k2/Ks [1] was 2300 M⁻¹ s⁻¹, the k2/Ks [2] was 3500 M⁻¹ s⁻¹ and the “reaction with N119S relative to wild type (times faster)” value [2] was 1.5 times. For the same molecule, the k2/Ks [3] was 4200 M⁻¹ s⁻¹, the “Specificity change (R)” value [3] was “(160)” and the k2/Ks [4] was 750 M⁻¹ s⁻¹. For the same molecule, the “Specificity change (R)” value [4] was “(60)”, the Kd [5] was 2000 nM and the “increase of affinity by Ser (N119S)” value [5] was 2 fold. It also gave a Kd [6] of 3500 nM.

From patent US20030207830A1, “Mutant NDP kinases for antiviral nucleotide analog activation and therapeutic uses thereof” (priority 2002, published 2003)
